These are literature values, as cited in patent US20210030918A1, “COATING OF FIBERS WITH DIPEPTIDE NANOSTRUCTURES USING ULTRASONIC CAVITATION” (Ramot at Tel-Aviv University Ltd., priority 2019, published 2021).

Molecules are shown by their SMILES.

`COc1cc(/C=C/C(=O)CC(=O)/C=C/c2ccc(O)c(OC)c2)ccc1O` [Curcumin, (1E,6E)-1,7-bis(4-hydroxy-3-methoxyphenyl)-1,6-heptadiene-3,5-dione]: the aqueous solubility entry is “poor”.
